In US8999990B2, “Inhibitors of the renal outer medullary potassium channel” (Merck Sharp & Dohme Corp., priority 2011, dated 2015):

Molecular target: T1, hROMK1 (Kir1.1) (Homo sapiens, UniProt P48048)
T1 construct: expressed in transfected cells
T1 sequence (P48048 1-391): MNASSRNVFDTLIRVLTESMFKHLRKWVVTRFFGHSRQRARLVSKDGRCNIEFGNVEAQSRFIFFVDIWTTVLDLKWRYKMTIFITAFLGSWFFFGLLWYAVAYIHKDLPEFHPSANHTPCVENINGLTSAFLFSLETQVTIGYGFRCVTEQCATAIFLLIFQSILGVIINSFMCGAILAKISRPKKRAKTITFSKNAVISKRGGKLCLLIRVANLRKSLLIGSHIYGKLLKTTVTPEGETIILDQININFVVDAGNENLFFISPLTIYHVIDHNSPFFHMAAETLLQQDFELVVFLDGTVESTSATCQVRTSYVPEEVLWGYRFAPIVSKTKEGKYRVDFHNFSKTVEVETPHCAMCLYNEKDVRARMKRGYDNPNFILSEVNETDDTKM
Assay: 86Rb+ Efflux Assay
Type: cell-based
Settings: CHO-DHFR- cells stably expressing hROMK1; 35 min incubation
Procedure: Several assays may be used to measure functional inhibition of the ROMK channel by compounds of the instant invention. One assay that was used to test the activity of compounds in the Examples is the functional ^86Rb^+ efflux assay described below, that measures the ability of ROMK to permeate ^86Rb^+, in the absence or presence of test compound. Under control conditions, cells loaded with ^86Rb^+ and incubated in Rb^+-free medium display a time-dependent efflux of the isotope, the rate of which depends on number of functional channels. When cells are incubated in the presence of a channel inhibitor, efflux of ^86Rb^+ is prevented in a concentration-dependent manner, and IC50 values of inhibition by compounds can be accurately determined. This assay has been established with cell lines expressing either human, rat or dog ROMK channels, and can operate in 96- or 384-well format. Importantly, the human, rat, and dog ^86Rb^+ efflux assays can be carried out in the presence of up to 100% serum allowing, therefore, an accurate estimation of the effect of protein binding on the inhibitory activity of compounds of interest. Another ROMK functional assay used to test the activity of compounds in the Examples (described below) makes use of the ability of thallium to permeate through open ROMK channels and increase the fluorescence of a dye previously loaded into the cells. Under control conditions, cells loaded with dye and exposed to thallium-containing medium display a time-dependent increase in fluorescence, the rate of which depends on number of functional channels. When cells are incubated in the presence of a channel inhibitor, the increase in fluorescence is attenuated in a concentration-dependent manner, and IC50 values of inhibition by compounds can be accurately determined. This assay has been established with cell lines expressing either human, or rat ROMK channels, and operates in 384-well format.
CHO-DHFR-cells stably expressing hROMK1 (Kir1.1) are grown at 37° C. in a 10% CO2 humidified incubator in Iscove's Modified Dulbecco's Medium (Gibco 12440) supplemented with HT Supplement, Penicillin/Streptomycin/Glutamine, G418 (500 μg/ml) and 10% FBS. Cells are seeded in Sterile and Tissue Culture Treated Packard CulturPlate White Opaque Microplates at a concentration of 5.0E5-7.0E5 cells/ml-PerkinElmer 6005680 (96-well); Corning 3707 (384 well) in complete media containing 1.5 μCi/ml Rubidium-86. Cells are incubated in 37° C.-10% CO2 incubator overnight. On the day of the experiment, the media is removed and cells are washed with low K assay buffer. ^86Rb^+ efflux is initiated after addition of assay buffer±test compound followed by 35 min incubation at room temperature. ROMK-sensitive component of efflux is defined in the presence of 10 mM BaCl2. Assay buffer is removed and transferred to a plate and cells are solubilized in the presence of SDS. Radioactivity associated with assay and cell plate is determined.
• 1. Remove cell media and wash cells with low K assay buffer (126.9 mM NaCl, 4.6 mM KCl, 2 mM CaCl2, 1 mM MgCl2, 10 mM Hepes/NaOH; pH 7.4) • 200 μl for 96-well plate; 70 μl for 384-well plate • 2. Add assay buffer (121.5 mM NaCl, 10 mM KCl, 2 mM CaCl2, 1 mM MgCl2, 10 mM Hepes/NaOH; pH 7.4)±test compound to cells • 100 μl for 96-well plate; 50 μl for 384-well plate • 3. Incubate at ambient temperature (22-24° C.) for 35 min • 4. Remove assay buffer add it to a 96- or 384-well plate containing Microscint-20 • 96-well Plate: 100 μl buffer, 170 μl MicroScint 20 (for TopCount) • 384-well plate: 20 μl buffer, 50 μl Optiphiase (for MicroLux) • 5. Completely remove remaining assay buffer from cell plate • 6. Solubilize cells with 1% SDS; than add MicroScint or Optiphase • 96-well Plate: 30 μl SDS, 170 μl MicroScint 20 (for TopCount) • 384-well plate: 20 μl SDS, 50 μl Optiphiase (for MicroLux) • 7. Seal both cell and supernatant plates and count Data Calculation— […]

SMILES: O=C1CN(CCc2ccc([N+](=O)[O-])c(F)c2)CCN1CCc1ccc([N+](=O)[O-])cc1 [Example 18, 4-[2-(3-Fluoro-4-nitrophenyl)ethyl]-1-[2-(4-nitrophenyl)ethyl]piperazin-2-one]
- IC50: 40 nM

SMILES: O=C1OCc2cc(CCN3CCN(CCc4ccc5nonc5c4)C(=O)C3)ccc21 [Example 27, 1-[2-(2,1,3-Benzoxadiazol-5-yl)ethyl]-4-[2-(1-oxo-1,3-dihydro-2-benzofuran-5-yl)ethyl]piperazin-2-one]
- IC50: 870 nM

SMILES: N#Cc1ccc2c(c1)CCCC2CN1CCN(CCc2ccc3c(c2)COC3=O)CC1=O (racemic) [Example 38, 5-({2-Oxo-4-[2-(1-oxo-1,3-dihydro-2-benzofuran-5-yl)ethyl]piperazin-1-yl}methyl)-5,6,7,8-tetrahydronaphthalene-2-carbonitrile]
- IC50: 140 nM

SMILES: N#Cc1ccc2c(c1)CCC(N1CCN(CCc3ccc([N+](=O)[O-])cc3)CC1=O)C2 (racemic) [Example 23, 6-{4-[2-(4-Nitrophenyl)ethyl]-2-oxopiperazin-1-yl}-5,6,7,8-tetrahydronaphthalene-2-carbonitrile]
- IC50: 60 nM

SMILES: O=C1CN(CCc2ccc([N+](=O)[O-])cc2F)CCN1CCc1ccc([N+](=O)[O-])cc1 [Example 12, 4-[2-(2-Fluoro-4-nitrophenyl)ethyl]-1-[2-(4-nitrophenyl)ethyl]piperazin-2-one]
- IC50: 140 nM

SMILES: N#Cc1ccc2c(c1)CCC(N1CCN(CCc3ccc4c(c3)CCOC4=O)CC1=O)C2 (racemic) [Example 42, 6-{2-Oxo-4-[2-(1-oxo-3,4-dihydro-1H-isochromen-6-yl)ethyl]piperazin-1-yl}-5,6,7,8-tetrahydronaphthalene-2-carbonitrile]
- IC50: 300 nM

SMILES: N#Cc1ccc2c(c1)CC(CN1CCN(CCc3ccc4c(c3)COC4=O)CC1=O)C2 (racemic) [Example 41, 2-({2-Oxo-4-[2-(1-oxo-1,3-dihydro-2-benzofuran-5-yl)ethyl]piperazin-1-yl}methyl)-2,3-dihydro-1H-indene-5-carbonitrile]
- IC50: 380 nM

SMILES: N#Cc1ccc2c(c1)CCC(N1CCN(CCc3ccc4c(c3)COC4=O)C(=O)C1)C2 (racemic) [Example 28, 6-{3-Oxo-4-[2-(1-oxo-1,3-dihydro-2-benzofuran-5-yl)ethyl]piperazin-1-yl}-5,6,7,8-tetrahydronaphthalene-2-carbonitrile]
- IC50: 410 nM

SMILES: N#Cc1ccc2c(c1)CCC(N1CCN(C(=O)Cc3ccc(-n4cnnn4)cc3)CC1=O)C2 (racemic) [Example 56, 6-(2-Oxo-4-{[4-(1H-tetrazol-1-yl)phenyl]acetyl}piperazin-1-yl)-5,6,7,8-tetrahydronaphthalene-2-carbonitrile]
- IC50: 720 nM

SMILES: N#Cc1ccc2c(c1)CCC(N1CCN([C@@H]3CCc4cc(C#N)ccc4C3)C(=O)C1)C2 (stereo partly drawn) [Example 17, (6R)-6,6′-(2-oxopiperazine-1,4-diyl)-di-(5,6,7,8-tetrahydronaphthalene-2-carbonitrile)]
- IC50: 70 nM

SMILES: N#Cc1ccc2c(c1)CCC(N1CCN(CCc3ccc([N+](=O)[O-])cc3)C(=O)C1)C2 (racemic) [Example 2, 6-(4-(4-nitrophenethyl)-3-oxopiperazin-1-yl)-5,6,7,8-tetrahydronaphthalene-2-carbonitrile]
- IC50: 40 nM

SMILES: N#Cc1ccc2c(c1)CCC(N1CCN(C(=O)C3CCc4cc(-n5cnnn5)ccc43)CC1=O)C2 (stereo not drawn) [Example 57, 6-(2-Oxo-4-{[5-(1H-tetrazol-1-yl)-2,3-dihydro-1H-inden-1-yl]carbonyl}piperazin-1-yl)-5,6,7,8-tetrahydronaphthalene-2-carbonitrile]
- IC50: 800 nM

SMILES: O=C1CN(CCc2ccc([N+](=O)[O-])cc2C(F)(F)F)CCN1CCc1ccc([N+](=O)[O-])cc1 [Example 4, 1-[2-(4-Nitrophenyl)ethyl]-4-{2-[4-nitro-2-(trifluoromethyl)phenyl]ethyl}piperazin-2-one]
- IC50: 310 nM

SMILES: N#Cc1ccc(CCN2CCN(CCc3ccc([N+](=O)[O-])cc3)C(=O)C2)cc1 [Example 5, 4-(2-{4-[2-(4-Nitrophenyl)ethyl]-3-oxopiperazin-1-yl}ethyl)benzonitrile]
- IC50: 120 nM

SMILES: COc1cc([N+](=O)[O-])ccc1CCN1CCN(CCc2ccc3nonc3c2)C(=O)C1 [Example 10, 1-[2-(2,1,3-Benzoxadiazol-5-yl)ethyl]-4-[2-(2-methoxy-4-nitrophenyl)ethyl]piperazin-2-one]
- IC50: 370 nM

SMILES: Cc1cc([N+](=O)[O-])ccc1CCN1CCN(CCc2ccc([N+](=O)[O-])cc2)C(=O)C1 [Example 19, 4-[2-(2-Methyl-4-nitrophenyl)ethyl]-1-[2-(4-nitrophenyl)ethyl]piperazin-2-one]
- IC50: 50 nM

SMILES: N#Cc1ccc2c(c1)CCC(N1CCN(CCc3ccc([N+](=O)[O-])c(F)c3)CC1=O)C2 (racemic) [Example 21, 6-{4-[2-(3-Fluoro-4-nitrophenyl)ethyl]-2-oxopiperazin-1-yl}-5,6,7,8-tetrahydronaphthalene-2-carbonitrile]
- IC50: 120 nM

SMILES: COc1cc(CCN2CCN(CCc3ccc([N+](=O)[O-])cc3)C(=O)C2)ccc1[N+](=O)[O-] [Example 22, 4-[2-(3-Methoxy-4-nitrophenyl)ethyl]-1-[2-(4-nitrophenyl)ethyl]piperazin-2-one]
- IC50: 170 nM

SMILES: N#Cc1ccc2c(c1)CCC(N1CCN(CCc3ccc4c(c3)COC4=O)CC1=O)C2 (racemic) [Example 26, 6-{2-Oxo-4-[2-(1-oxo-1,3-dihydro-2-benzofuran-5-yl)ethyl]piperazin-1-yl}-5,6,7,8-tetrahydronaphthalene-2-carbonitrile]
- IC50: 30 nM

SMILES: O=C1CN(CCc2ccc([N+](=O)[O-])c(F)c2)CCN1CCc1ccc2nonc2c1 [Example 20, 1-[2-(2,1,3-Benzoxadiazol-5-yl)ethyl]-4-[2-(3-fluoro-4-nitrophenyl)ethyl]piperazin-2-one]
- IC50: 170 nM

SMILES: N#Cc1ccc2c(c1)CC(N1CCN(CCc3ccc4c(c3)COC4=O)CC1=O)CC2 (racemic) [Example 37, 7-{2-Oxo-4-[2-(1-oxo-1,3-dihydro-2-benzofuran-5-yl)ethyl]piperazin-1-yl}-5,6,7,8-tetrahydronaphthalene-2-carbonitrile]
- IC50: 280 nM

SMILES: CC1C(=O)N(CCc2ccc([N+](=O)[O-])cc2)CCN1CCc1ccc([N+](=O)[O-])cc1 (racemic) [Example 6, 3-Methyl-1,4-bis[2-(4-nitrophenyl)ethyl]piperazin-2-one]
- IC50: 270 nM

SMILES: Cc1c(CCN2CCN(C3CCc4cc(C#N)ccc4C3)C(=O)C2)ccc2c1COC2=O (racemic) [Example 30, 6-{4-[2-(4-Methyl-1-oxo-1,3-dihydro-2-benzofuran-5-yl)ethyl]-2-oxopiperazin-1-yl}-5,6,7,8-tetrahydronaphthalene-2-carbonitrile]
- IC50: 310 nM

SMILES: O=C1CN(CCc2ccc([N+](=O)[O-])c(C(F)(F)F)c2)CCN1CCc1ccc([N+](=O)[O-])cc1 [Example 3, 1-[2-(4-Nitrophenyl)ethyl]-4-{2-[4-nitro-3-(trifluoromethyl)phenyl]ethyl}piperazin-2-one]
- IC50: 740 nM
